Test systems include 786-0; A549; CAKI-1; CCRF-CEM; DU-145; HCC 2998; LOX IMVI; MOLT-4; PC-3; SF-295; SK-MEL-28; SK-MEL-5; SK-OV-3; T47D; U-251; UACC-257; UO-31; BT-549; HOP-92; RPMI-8226.
Assay in all cases: growth of human tumour cells (NCI), 48 h

Molecules are shown by their SMILES.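 Compound exposure: 48 hours, 5 concentrations, 96-well plates. At the GI50, growth is halved.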 Active and inactive are the calls of the source. Cut-off read from the data, not from the text of the source: active = GI50 up to about 1.1 µM and inactive = higher. Some results are limits rather than exact numbers.

For `O=C(Nc1ccc(Cl)cc1)c1cc2c(cc1Cl)Sc1nccn1S2(=O)=O`, the GI50 in the assay with 786-0 is 29.6 µM (inactive); in the assay on A549, > 100 µM (inactive); in the assay on CAKI-1 it was 40.7 µM (inactive); in the assay with CCRF-CEM it was > 100 µM (inactive); with DU-145 it was > 100 µM (inactive); with HCC 2998, 76.7 µM (inactive). In addition, the GI50 in the assay on LOX IMVI is > 100 µM (inactive); in the assay with MOLT-4, 27.9 µM (inactive); in the assay on PC-3 it was 85.3 µM (inactive); with SF-295, 29.2 µM (inactive); in the assay with SK-MEL-28, 40.5 µM (inactive); with SK-MEL-5, 44.7 µM (inactive). Also, the GI50 in the assay with SK-OV-3 was 64 µM (inactive); with T47D it was > 100 µM (inactive); in the assay on U-251 it was 10.7 µM (inactive).

For `COCC1OC([P+](c2ccccc2)(c2ccccc2)c2ccccc2)CC(OC)C1OC` (stereo not drawn), the GI50 in the assay on 786-0 was 53.2 µM (inactive); in the assay with CAKI-1 it was > 100 µM (inactive); in the assay with DU-145 it was 32.2 µM (inactive); with MOLT-4, 58.1 µM (inactive); in the assay on PC-3, 30.5 µM (inactive); in the assay with SF-295 it was 34.2 µM (inactive). For the same compound, the GI50 was 68.1 µM (inactive) with SK-MEL-28; 18.2 µM (inactive) in the assay with SK-MEL-5; 32.6 µM (inactive) in the assay on SK-OV-3; 20.6 µM (inactive) in the assay with T47D; 35.6 µM (inactive) in the assay with U-251; 21 µM (inactive) in the assay with UACC-257. For the same compound, the GI50 in the assay on UO-31 was > 100 µM (inactive).

On to `CC1N(O)C(c2ccccc2)C(c2ccccc2)=[N+]1[O-]` (stereo not drawn), for which the GI50 in the assay with 786-0, in the assay with A549, in the assay on BT-549, in the assay on CAKI-1, in the assay with CCRF-CEM and with HCC 2998 was > 100 µM (inactive) in each case. Further, the GI50 with HOP-92, in the assay on LOX IMVI, with MOLT-4, with PC-3, in the assay with SF-295 and in the assay on SK-MEL-28 was > 100 µM (inactive) throughout. Further, the GI50 in the assay on SK-MEL-5, in the assay on SK-OV-3, in the assay with U-251, in the assay with UACC-257 and in the assay on UO-31 was > 100 µM (inactive) in each case.

Regarding `CC1=C2CN(C(=O)OCC(C)C)CCC2C2=C(C(=O)c3ccccc3C2=O)C1C` (stereo not drawn), the GI50 in the assay on 786-0, with A549, in the assay on CAKI-1, with CCRF-CEM, in the assay on DU-145 and with HCC 2998 was > 10 µM (inactive) throughout. Also, the GI50 in the assay with HOP-92, with LOX IMVI, in the assay with MOLT-4, in the assay with PC-3, in the assay with RPMI-8226 and in the assay with SF-295 was > 10 µM (inactive) in each case. The GI50 in the assay with SK-MEL-28, in the assay with SK-MEL-5, in the assay on SK-OV-3, in the assay with T47D and in the assay with UACC-257 was > 10 µM (inactive) throughout.

With `O=c1[nH]c2[nH]c(-c3ccc(Br)cc3)cc2c2ccccc12`, the GI50 in the assay with 786-0 is 35.6 µM (inactive); in the assay with BT-549, 76.4 µM (inactive); in the assay with CAKI-1, 61.1 µM (inactive); with DU-145, > 100 µM (inactive); with HCC 2998, > 100 µM (inactive); in the assay on LOX IMVI, > 10 µM (inactive). In addition, the GI50 in the assay on MOLT-4 was 12 µM (inactive); in the assay on PC-3, > 100 µM (inactive); in the assay with RPMI-8226, 70.5 µM (inactive); in the assay on SF-295, 70 µM (inactive); with SK-MEL-28 it was > 100 µM (inactive); in the assay on SK-MEL-5, > 100 µM (inactive). The GI50 with U-251 was 28.8 µM (inactive); in the assay on UACC-257, > 100 µM (inactive); in the assay on UO-31 it was > 100 µM (inactive).

As to `CCOC(=O)/C=C/CC(C)(C)CCOC(C)=O`, the GI50 with 786-0, in the assay with A549, in the assay on CAKI-1, in the assay on CCRF-CEM, in the assay with DU-145 and in the assay on HCC 2998 was > 10 µM (inactive) in each case. In addition, the GI50 in the assay with HOP-92, in the assay on LOX IMVI, in the assay with MOLT-4, in the assay on PC-3, in the assay with RPMI-8226 and in the assay with SF-295 was > 10 µM (inactive) throughout. The GI50 in the assay on SK-MEL-28, with SK-MEL-5, with SK-OV-3, in the assay on T47D, with U-251 and in the assay with UACC-257 was > 10 µM (inactive) throughout. In addition, in the assay with UO-31, the GI50 is > 10 µM (inactive).

`COc1ccc(C=C2C(=O)NC(=S)NC2=O)c2ccccc12`: the GI50 was 47 µM (inactive) in the assay on 786-0; 50.2 µM (inactive) with CAKI-1; 32.4 µM (inactive) in the assay on CCRF-CEM; 23.8 µM (inactive) in the assay on DU-145; 32.6 µM (inactive) in the assay with HCC 2998; > 100 µM (inactive) in the assay with HOP-92. The GI50 with LOX IMVI is 34.4 µM (inactive); with MOLT-4, 83.2 µM (inactive); in the assay with PC-3, 26.2 µM (inactive); in the assay with RPMI-8226, 34.5 µM (inactive); with SF-295 it was 31.3 µM (inactive); in the assay with SK-MEL-28, 57.8 µM (inactive). Moreover, the GI50 in the assay with SK-MEL-5 is 29.1 µM (inactive); in the assay on SK-OV-3, 37.1 µM (inactive); in the assay with T47D it was 32.1 µM (inactive); in the assay with U-251, 27.6 µM (inactive); in the assay with UACC-257 it was 14.4 µM (inactive); in the assay on UO-31, > 100 µM (inactive).

In the case of `CCc1n[nH]c(=O)n1/N=C/c1c(O)ccc2ccccc12`, the GI50 in the assay with 786-0, in the assay on A549, in the assay on BT-549, with CCRF-CEM, in the assay on DU-145 and in the assay on HCC 2998 was > 100 µM (inactive) in each case. The GI50 in the assay on HOP-92, in the assay with LOX IMVI, with MOLT-4, in the assay on PC-3, with RPMI-8226 and in the assay with SF-295 was > 100 µM (inactive) in each case. Also, the GI50 with SK-MEL-28, with SK-MEL-5, with SK-OV-3, in the assay on U-251, with UACC-257 and with UO-31 was > 100 µM (inactive) throughout.

For the compound `Cc1nc2c(Br)cc(Br)cc2c(=O)n1-c1ccccc1N`, the GI50 in the assay with 786-0 is 43.8 µM (inactive); with A549, 33.5 µM (inactive); with BT-549 it was 27.5 µM (inactive); in the assay on CAKI-1, 28.4 µM (inactive); with CCRF-CEM it was 30.1 µM (inactive); in the assay with DU-145, 56.6 µM (inactive). Besides, the GI50 in the assay on HCC 2998 was 35.6 µM (inactive); with LOX IMVI, 27.5 µM (inactive); with MOLT-4, 21.9 µM (inactive); in the assay with PC-3 it was 26.8 µM (inactive); in the assay on SF-295, 53 µM (inactive); in the assay on SK-MEL-28, 44.4 µM (inactive). Besides, the GI50 is 18.3 µM (inactive) in the assay with SK-MEL-5, 33 µM (inactive) in the assay with SK-OV-3, 31 µM (inactive) in the assay on UACC-257 and 20.5 µM (inactive) with UO-31.

As for `O=C(O)CSCC(=O)O`, the GI50 with 786-0, with A549, in the assay with BT-549, in the assay with CAKI-1, in the assay on CCRF-CEM and in the assay on DU-145 was > 100 µM (inactive) each time. For the same compound, the GI50 in the assay on HOP-92, with LOX IMVI, in the assay with MOLT-4, in the assay with PC-3, with SF-295 and in the assay on SK-MEL-28 was > 100 µM (inactive) in each case. The GI50 in the assay on SK-MEL-5, in the assay with U-251, in the assay with UACC-257 and with UO-31 was > 100 µM (inactive) throughout.

Turning to `NNC(=O)CC(=O)Nc1ccccc1F`, the GI50 with 786-0, in the assay with A549, in the assay on CAKI-1, in the assay on CCRF-CEM, in the assay with HCC 2998 and with HOP-92 was > 100 µM (inactive) each time. The GI50 with LOX IMVI, in the assay with MOLT-4, with RPMI-8226, with SF-295, with SK-MEL-28 and in the assay on SK-MEL-5 was > 100 µM (inactive) throughout. Further, the GI50 in the assay on SK-OV-3, in the assay on U-251, in the assay with UACC-257 and in the assay on UO-31 was > 100 µM (inactive) throughout.

For `O=C1/C(=C/c2ccc(Cl)cc2)CCC1CNc1ccc(Cl)cc1` (stereo not drawn), the GI50 was 2.26 µM (inactive) with 786-0; 7.8 µM (inactive) in the assay on A549; 24.3 µM (inactive) in the assay with BT-549; 7.55 µM (inactive) in the assay on CAKI-1; 0.828 µM (active) in the assay on CCRF-CEM; 13.5 µM (inactive) in the assay with DU-145. The GI50 was 6.01 µM (inactive) in the assay with HCC 2998; 19.3 µM (inactive) in the assay on HOP-92; 0.673 µM (active) in the assay on LOX IMVI; 2.29 µM (inactive) with MOLT-4; 10.5 µM (inactive) with PC-3; 0.78 µM (active) with RPMI-8226. Further, the GI50 in the assay on SF-295 is 6.79 µM (inactive); in the assay with SK-MEL-28, 15.6 µM (inactive); in the assay with SK-MEL-5 it was 3.33 µM (inactive); in the assay on U-251, 9.71 µM (inactive); with UACC-257, 13.8 µM (inactive); with UO-31 it was 5.35 µM (inactive).

The values are drawn from ChEMBL document CHEMBL1201862, “PubChem BioAssay data set” (2004).
